Assay results published in patent US10689394B2, “Thieno[2,3-b]pyridine derivative, quinoline derivative, and use thereof” (The University of Tokyo, priority 2016, dated 2020).

Assays:
[1] = molecular target: T1, complex formation by Derlin-1 (Homo sapiens, UniProt Q9BUN8); assay: Inhibition of complex formation by Derlin-1; type: cell-based; conditions: under conditions for inhibiting the binding between mutant SOD1 and Derlin-1
T1 sequence (Q9BUN8 1-251): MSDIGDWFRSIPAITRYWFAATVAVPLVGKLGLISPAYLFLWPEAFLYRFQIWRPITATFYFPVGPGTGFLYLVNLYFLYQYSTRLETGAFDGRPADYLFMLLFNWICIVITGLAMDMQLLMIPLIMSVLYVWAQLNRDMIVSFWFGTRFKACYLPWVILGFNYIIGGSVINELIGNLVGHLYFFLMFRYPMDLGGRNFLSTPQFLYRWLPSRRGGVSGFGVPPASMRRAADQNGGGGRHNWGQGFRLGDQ
Description: In the above-described SOD1-Derlin-1-binding inhibition experiment, SOD1 G93A that is a representative mutant SOD1 associated with the onset of the pathologic conditions of ALS was used. According to previous studies, however, it has become clear that 122 types of ALS-related mutant SOD1s bind to Derlin-1 (Fujisawa et al., Ann Neurol 72, 739-749, (2012)).

[2] = test system: binding between 122 types of ALS-related mutant SOD1s and Derlin-1; assay: Cell-based co-immunoprecipitation with 122 types of ALS-related mutant SOD1s; parameters: species or system human; conditions: co-immunoprecipitation at cell level, FIG. 2 to FIG. 9
Description: (§1) Transfection into the HEK293A cells was carried out using PEI-Max (Polyscience) at a ratio of 3 μL of PEI-Max to 1 μg of plasmid. DMEM was mixed with PEI-Max, and the mixture was then left at rest for 5 minutes. Thereafter, the reaction mixture was added to the plasmid DNA dissolved in DMEM, and the thus obtained mixture was further left at rest for 15 minutes. After seeding, the culture was carried out for 12 to 24 hours, and the resultant was then added to a culture medium of cells, in which the medium had been exchanged with DMEM supplemented only with 10% FBS.
(§2) pcDNA3.0-Derlin-1-HA, pcDNA3.0-Flag-SOD1 G93A, and 123 types of other mutants.
After the transfection on a 24-well plate, the cells were cultured for 12 hours or 24 hours, and the obtained cell culture was exchanged with 200 μL of medium. Thereafter, 1% DMSO or various types of compounds having each different concentration were added into the culture. Thirty-six hours or twenty-four hours later, the cells were incubated in the IP lysis buffer (300 μL/well) at 4° C. for 25 minutes, so that the cells were lysed. The cell lysate was centrifuged at 4° C. at 15000 rpm for 10 minutes, and a supernatant was then recovered. To this supernatant, Anti-Flag M2 affinity gel was added in a liquid amount of 20 μL, and they were allowed to react with each other by subjecting the obtained mixture to inversion mixing at 4° C. for 25 minutes. […]

[3] = molecular target: T2, binding between ALS-related mutant SOD1 (Flag-SOD1 G93A) and Derlin-1 (Derlin-1-HA) (Homo sapiens, UniProt P00441+Q9BUN8, G94A); assay: Cell-based co-immunoprecipitation assay of mutant SOD1 (G93A)-Derlin-1 binding; parameters: key to Activity value (score): a compound exhibiting no inhibitory activity is set at 0; a compound exhibiting inhibitory activity is set at 1; a compound exhibiting significant inhibitory activity is set at 2; a compound having higher inhibitory activity than the compound of Example 1 is set at 3
T2 construct: expressed in transfected cells; host or cells: HEK293A
Description: As cells, human embryonic kidney-derived, Human Embryonic Kidney 293A (HEK293A) cells were used. The cells were cultured in High Glucose Dulbecco's modified Eagle's medium (DMEM: 4.5 mg/ml glucose, Sigma) supplemented with complement-inactivated 10% fetal bovine serum (FBS, Vitromex) and 100 units/mL Penicillin G (Meiji), which was placed in an incubator set at conditions of 37° C. and 5% CO2.
as §1, §2
In the lysis of HEK293A cells for use in a co-immunoprecipitation experiment, an IP lysis buffer (20 mM Tris-HCl (pH 7.5), 150 mM NaCl, 10 mM EDTA (pH 8.0), 1% Triton-X 100, 5 μg/mL leupeptin, and 1 mM phenylmethylsulfonyl fluoride) was used.
After the transfection on a 24-well plate, the cells were cultured for 12 hours or 24 hours, and the obtained cell culture was exchanged with 200 μL of medium. Thereafter, 1% DMSO or various types of compounds having each different concentration were added into the culture. Thirty-six hours or twenty-four hours later, the cells were incubated in the IP lysis buffer (300 μL/well) at 4° C. for 25 minutes, so that the cells were lysed. The cell lysate was centrifuged at 4° C. at 15000 rpm for 10 minutes, and a supernatant was then recovered. To this supernatant, Anti-Flag M2 affinity gel was added in a liquid amount of 20 μL, and they were allowed to react with each other by subjecting the obtained mixture to inversion mixing at 4° C. for 25 minutes. After completion of the reaction, a supernatant was removed, and the residue was washed twice with High salt wash buffer (1% Triton X 100, 500 mM NaCl, 20 mM Tris-HCl (pH 7.5), and 5 mM EGTA), and was then washed once with Low salt wash buffer (150 mM NaCl, 20 mM Tris-HCl (pH 7.5), and 5 mM EGTA). Finally, 50 μL of a 2×SDS sample buffer was added to the resultant, and the obtained mixture was then boiled at 98° C. for 3 minutes to obtain an SDS-PAGE sample. Regarding the lysate, a 2×SDS sample buffer was added in an amount equal to the supernatant, and the obtained mixture was then boiled at 98° C. for 3 minutes to obtain an SDS-PAGE sample.
After completion of SDS-PAGE, a protein was transferred from the gel into a polyvinylidene difluoride membrane (PVDF) ([…], Pall), and was then blocked with TBS-T (150 mM NaCl, 50 mM Tris-HCl (pH 8.0), and 0.05% Tween 20) supplemented with 5% skimmed milk at room temperature for 2 hours or more. Thereafter, a primary antibody diluted with TBS-T supplemented with 5% bovine serum albumin and 0.1% NaN3 was allowed to bind to each molecule on the PVDF membrane at 4° C. for 12 hours or more. After completion of the reaction, a secondary antibody (HRP-linked 2nd antibody) diluted with TBS-T supplemented with 5% skimmed milk was allowed to bind to the primary antibody at room temperature for 1 hour. Thereafter, the resultant was washed with TBS-T for 15 minutes, 3 or more times, and detection was then carried out using an enhanced chemiluminescence (ECL) system.
With regard to the compounds of the present invention (Example Compound 1 to Example Compound 47), whether or not the present compound can inhibit the binding between ALS-related mutant SOD1 and Derlin-1 in a cell by being added into a cell culture solution was examined according to a co-immunoprecipitation experiment. […]

T2 sequence (P00441 whole entry G94A, species assumed, one chain of several): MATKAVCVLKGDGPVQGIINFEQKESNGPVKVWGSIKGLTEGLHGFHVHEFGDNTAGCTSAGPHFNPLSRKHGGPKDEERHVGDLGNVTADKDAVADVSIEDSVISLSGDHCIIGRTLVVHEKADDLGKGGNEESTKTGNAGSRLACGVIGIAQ

C=CCN(C(=O)c1sc2nc(-c3cccnc3)ccc2c1N)c1ccccc1 [Example 1, N-allyl-3-amino-N-phenyl-6-(3-pyridinyl)thieno[2,3-b]pyridine-2-carboxamide]
inhibitory activity on complex formation by Derlin-1 [1]: did not exhibit inhibitory activity
inhibition of binding between multiple types of mutant SOD1s and Derlin-1 [2]: inhibits the binding between all of the mutant SOD s and Derlin-1
binding between mutant SOD1 and Derlin-1 (co-precipitated Derlin-1, IB:HA band) ([3]; 5 μM, 10 μM and 20 μM added to HEK293A cell culture, FIG. 1): the binding between mutant SOD1 and Derlin-1 was inhibited
Activity value (score) ([3]; assay concentration 20 μM, HEK293A cells overexpressing Flag-SOD1 G93A and Derlin-1-HA): 2
